“Also recorded” adds a separate entry of the source.
What was measured:
[1] = system: P388D1 macrophage-like cells; test: [Ca2+]i response before and after UV uncaging, fluo-3; format: cell-based; conditions: for [Ca2+]i after UV (360 nm, 10 s): 20 μM
Experimental: The cells were loaded with fluo-3/AM. During the experiment the cells were bathed in HBS buffered with 20 mM Hepes at pH 7.4 and supplemented with 2 g/L glucose.
Another example was carried out in P388D1 macrophage-like cells.
Studies by Asmis et al. (92) have shown that, in P388D1 macrophage-like cells, PAF stimulated PGE2 production is mediated through two separate signals: IP3 induced [Ca^2+ ]i increase and another unidentified signal. IP3 -CPM might serve as a new tool for detailed study of PGE2 formation and AA release in relation to IP3 and [Ca^2+ ]i in these cells. One of the major advantages of using permeant IP3 derivatives is that experiments can be easily carried out in a population of cells, which is required for the measurement of AA release and PGE2 formation.

[2] = Membrane permeability; format: in vitro ADME
[3] = system: human embryonic kidney cells (HEK cells); test: [Ca2+]i response on flash photolysis of loaded cells; format: cell-based
Experimental: In human embryonic kidney cells (HEK cells), the extracellular IP3 -CPM was washed away after the cells had been loaded with 50 μM of IP3 -CPM for 20 minutes. […] Cells in the same dish which had not been exposed to UV light were kept in the dark for over 6 hours. […] However, pretreatment of IP3 -CPM with acetic acid will unmask the 3-hydroxyl and enable the intracellular phosphorylation of delivered IP3.

[4] = system: 1321N1 astrocytoma cells; test: [Ca2+]i response before and after UV uncaging, fluo-3; format: cell-based; conditions: with extracellular Ca2+
[5] = system: 1321N1 astrocytoma cells; test: as above; format: cell-based
Experimental: (b) Same experiment as (a) except done in Ca^2+ free medium (DPBS, O Ca^2+, 0.5 mM EGTA). UV exposure of the cells treated with IP3 -CPM still gave the same response, showing that the [Ca^2+ ]i increase resulted from the release of Ca^2+ from internal stores. […] The cells were loaded with fluo-3/AM. During the experiment the cells were bathed in HBS buffered with 20 mM Hepes at pH 7.4 and supplemented with 2 g/L glucose.
The [Ca^2+ ]i was monitored using the calcium indicator fluo-3 rather than fura-2 to keep the excitation wavelength of the indicator (490 nm) far from the uncaging wavelength (360 nm) of DMNB group. […] Compared to the photolyzing set-up (direct illumination by a hand mercury lamp) used for the IP3 -binding assay, the optical throughput from the source lamp to the specimen is much higher in a microscope, so 10 seconds (as opposed to 2 hours in IP3 binding assay) of photolysis was sufficient to produce enough IP3 to elicit [Ca^2+ ]i increase. The same amount of UV alone had no effect at all on [Ca^2+ ]i in cells not treated with IP3 -CPM. After recovering from uncaging of IP3 -CPM, the cells responded to subsequent carbachol and thapsigargin stimulation normally.
This confirmed that the [Ca^2+ ]i increase due to uncaging of IP3 -CPM resulted from internal Ca^2+ release, which was consistent with the normal mechanism of IP3 action.

[6] = Chemical stability; format: physicochemical
[7] = 20 μM extracellular, about/over 5 min

CCC(=O)OCOP(=O)(OCOC(=O)CC)O[C@@H]1[C@@H](OCc2cc(OC)c(OC)cc2[N+](=O)[O-])[C@H](OP(=O)(OCOC(=O)CC)OCOC(=O)CC)[C@@H]2OC(OC)O[C@@H]2[C@H]1OP(=O)(OCOC(=O)CC)OCOC(=O)CC (stereo partly drawn) [IP3 -CPM, D-2,3-O-methoxymethylene-6-O-(4,5-dimethoxy-2-nitrobenzyl)-myo-Inositol 1,4,5-trisphosphate hexakis(propionyloxymethyl)ester]
[Ca2+]i time course after uncaging [1]: went back to the basal level in a short time | [Ca2+]i after UV (360 nm, 10 s) [1]: released a fair amount of Ca^2+ from internal stores | [Ca2+]i before UV [1, 7]: no effect on [Ca^2+ ]i | [Ca2+]i after UV (360 nm, 10 s) ([1]; listed as IP3 -CPM (V-1)): big [Ca^2+ ]i increase | membrane permeability (in words) [2]: crossed the cell membrane | [Ca2+]i on photolysis (1 ms flash) ([3]; loaded 50 μM, 20 min, washed): transient increase in [Ca^2+ ]i | persistence of [Ca2+]i response to repeated flashes ([3]; loaded 50 μM, 20 min, washed): persisted for up to a dozen repetitions | [Ca2+]i on photolysis after dark storage ([3]; over 6 hours in the dark after loading): [Ca^2+ ]i increases similar to those obtained immediately after being loaded; also recorded: full-scale [Ca^2+ ]i increases | [Ca2+]i after UV (360 nm, 10 s) ([4]; 20 μM): almost saturating [Ca^2+ ]i increase | [Ca2+]i time course after uncaging [4]: remained elevated above the resting level | [Ca2+]i before UV [5, 7]: no effect on [Ca^2+ ]i | [Ca2+]i after UV (360 nm, 10 s) ([5]; 20 μM, Ca2+ free medium (0.5 mM EGTA), listed as IP3 -CPM (V-1)): same response | extracellular concentration eliciting maximal Ca2+ release upon uncaging ([5]; 1321N1 astrocytoma cells): 10^-6 to 10^-5 M | [Ca2+]i time course after uncaging ([5]; Ca2+ free medium): soon went back to the resting level | chemical stability vs commercially available caged IP3 [6]: chemically more stable

Reference: patent US5866548A, “Caged membrane-permeant inositol phosphates” (priority 1996, dated 1999)
